# Entries after “also recorded” stand apart in the source; their conditions may differ.
# How the values were obtained:
# [1] = target: T1, CNT1 (Rattus norvegicus, UniProt Q62674); experiment: inhibition of CNT1-mediated nucleoside (uridine, AZT, ddC) transport in Xenopus oocytes; assay type: cell-based; settings: for effect on expressed uridine fluxes/transport: inhibitor 1 mM; for selective inhibition of uridine and thymidine fluxes (rCNT1): adenosine, cytidine, uridine>>guanosine, inosine
# T1 sequence (Q62674 1-648): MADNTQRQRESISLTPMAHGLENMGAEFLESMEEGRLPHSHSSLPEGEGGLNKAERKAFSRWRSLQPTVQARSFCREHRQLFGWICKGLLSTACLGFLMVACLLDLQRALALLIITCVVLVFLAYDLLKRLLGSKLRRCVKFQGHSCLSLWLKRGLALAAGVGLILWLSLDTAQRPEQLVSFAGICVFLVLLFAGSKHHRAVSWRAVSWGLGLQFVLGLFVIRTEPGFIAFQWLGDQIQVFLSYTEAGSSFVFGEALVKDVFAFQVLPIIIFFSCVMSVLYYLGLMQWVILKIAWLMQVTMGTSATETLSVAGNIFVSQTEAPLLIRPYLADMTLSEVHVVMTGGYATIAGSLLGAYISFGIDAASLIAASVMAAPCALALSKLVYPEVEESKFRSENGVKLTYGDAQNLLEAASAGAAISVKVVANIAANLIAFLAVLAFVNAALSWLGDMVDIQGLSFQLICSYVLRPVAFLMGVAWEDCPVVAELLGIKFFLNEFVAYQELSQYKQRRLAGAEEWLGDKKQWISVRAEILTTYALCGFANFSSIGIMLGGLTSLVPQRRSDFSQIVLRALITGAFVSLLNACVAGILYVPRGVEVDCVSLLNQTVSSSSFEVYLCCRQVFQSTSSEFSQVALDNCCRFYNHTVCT
# Description: (§1) Oocytes were injected with water or RNA transcribed in vitro from the nucleoside transporter cDNA (pQQH1). […] For panels c and d, the permeant concentration was 10 μM and competing nonradioactive nucleosides were present at a concentration of 1 mM.
# (§2) Remaining template was removed by digestion with RQ1 DNase. Oocytes were treated with collagenase to remove follicular layers (Huang et al, 1993) and injected with 10 ng of pQQH1 cRNA or water. […] At the end of the incubation, extracellular label was removed by six rapid ice-cold washes in the appropriate transport buffer. Individual oocytes were dissolved in 5% SDS for quantitation of oocyte-associated ^3 H by liquid scintillation counting (LS 6000 IC, Beckman).
# [2] = target: T2, hCNT1a (Homo sapiens, UniProt O00337); experiment: inhibition of hCNT1a-mediated influx of [3H]uridine in Xenopus oocytes; settings: uridine 10 μM; for inhibition of uridine fluxes, hCNT1a: competitor 1 mM (FIG. 12A), guanosine also in FIG. 13
# T2 sequence (O00337 with tags, fused parts or gaps E34G/INS140V): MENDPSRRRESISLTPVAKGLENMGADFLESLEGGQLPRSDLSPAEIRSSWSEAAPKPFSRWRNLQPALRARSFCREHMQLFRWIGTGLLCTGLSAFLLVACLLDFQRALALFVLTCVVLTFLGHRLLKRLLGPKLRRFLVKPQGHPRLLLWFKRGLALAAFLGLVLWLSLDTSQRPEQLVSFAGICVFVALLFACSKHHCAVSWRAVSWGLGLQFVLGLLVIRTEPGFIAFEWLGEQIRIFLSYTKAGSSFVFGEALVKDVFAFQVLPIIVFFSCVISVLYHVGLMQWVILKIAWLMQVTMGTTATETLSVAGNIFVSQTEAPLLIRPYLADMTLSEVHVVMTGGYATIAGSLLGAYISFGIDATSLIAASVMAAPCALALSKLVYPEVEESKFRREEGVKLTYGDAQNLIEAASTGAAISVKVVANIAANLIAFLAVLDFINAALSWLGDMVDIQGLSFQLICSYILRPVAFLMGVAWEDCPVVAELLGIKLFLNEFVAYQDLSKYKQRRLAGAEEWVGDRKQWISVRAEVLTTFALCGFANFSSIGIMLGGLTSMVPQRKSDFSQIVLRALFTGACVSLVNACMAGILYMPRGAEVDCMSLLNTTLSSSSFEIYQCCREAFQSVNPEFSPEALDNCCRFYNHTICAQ
# Description: H2 O, water-injected oocytes. Fluxes were not corrected for the contribution of endogenous transport activity.
# (§3) Defolliculated oocytes (Huang et al. 1993) were injected with either 10 nl of water containing 10 ng RNA transcript or 10 nl of water alone. Nucleoside uptake was measured after 3 d and was traced with the respective [^3 H] or [^14 C]nucleoside (Moravek Biochemicals)(5 μC 3H/ml, 1 μC 14C/ml). […] The transport buffer for adenosine influx experiments contained 1 μM deoxycoformycin to inhibit adenosine deaminase activity. Results are presented as means ±SEM for 10-12 individual oocytes. Kinetic constants were determined by non-linear regression analysis (ENZFITTER, Elsevier-Biosoft). Each experiment was performed at least twice on different batches of oocytes.
# [3] = target: T3, hCNT1b (Homo sapiens, UniProt O00337); experiment: inhibition of hCNT1b-mediated influx of [3H]uridine in Xenopus oocytes; assay type: cell-based; settings: uridine 10 μM; for inhibition of uridine fluxes, hCNT1b: competitor 1 mM (FIG. 12B)
# T3 sequence (O00337 2-649 V189I/N409S/D521N): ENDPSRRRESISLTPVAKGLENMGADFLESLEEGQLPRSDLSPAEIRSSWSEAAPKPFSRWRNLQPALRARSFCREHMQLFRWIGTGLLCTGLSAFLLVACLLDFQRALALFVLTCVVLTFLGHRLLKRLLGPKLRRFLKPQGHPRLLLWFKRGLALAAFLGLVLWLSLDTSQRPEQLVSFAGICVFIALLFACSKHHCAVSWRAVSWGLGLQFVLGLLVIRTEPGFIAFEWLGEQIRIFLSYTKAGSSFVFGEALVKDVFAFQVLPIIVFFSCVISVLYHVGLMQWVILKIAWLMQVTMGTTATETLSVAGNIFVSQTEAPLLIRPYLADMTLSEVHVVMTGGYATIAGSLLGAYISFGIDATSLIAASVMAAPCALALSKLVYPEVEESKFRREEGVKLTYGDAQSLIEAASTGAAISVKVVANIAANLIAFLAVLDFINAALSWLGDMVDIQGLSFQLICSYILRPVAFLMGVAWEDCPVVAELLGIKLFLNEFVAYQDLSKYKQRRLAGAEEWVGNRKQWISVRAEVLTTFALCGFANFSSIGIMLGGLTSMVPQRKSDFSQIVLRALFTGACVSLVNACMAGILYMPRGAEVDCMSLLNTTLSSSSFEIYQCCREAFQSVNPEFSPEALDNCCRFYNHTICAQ
# Excerpt: H2 O, water-injected oocytes.
# [4] = target: T1, CNT1; experiment: uptake/influx of radiolabelled nucleosides in Xenopus oocytes injected with pQQH1 (rat CNT1) cRNA; assay type: cell-based
# Description: as §1
# Oocytes injected with water or in vitro transcribed RNA from pQQH1 were incubated with radiolabeled permanent (10 μM) for 30 min (open columns) or 1 h (hatched columns) at 20° C. Each value represents the mean ±S. E. of 8-10 ooctyes.
# as §2
# [5] = target: T2, hCNT1a; experiment: influx of radiolabelled nucleosides in Xenopus oocytes injected with hCNT1a RNA transcript
# Description: Oocytes were injected with either water alone or water containing hCNT1a RNA transcript.
# Oocytes were injected with either water alone (.tangle-solidup.) or water containing hCNT1a RNA transcript (.smallcircle.,.circle-solid.).
# Adenosine, guanosine and AZT (10 μM) fluxes were compared in the same batch of oocytes injected either with water (open columns) or with RNA transcript for hCNT1a or rCNT1 (hatched and solid columns, respectively).
# as §3
# [6] = target: T3, hCNT1b; experiment: influx of radiolabelled nucleosides in Xenopus oocytes injected with hCNT1b RNA transcript; assay type: cell-based
# Description: as §3
# [7] = tested on: human erythrocytes; settings: cited from earlier work
# [8] = tested on: human erythrocyte es transporter; settings: cited from earlier work
# [9] = substrate: O=c1ccn([C@@H]2O[C@H](CO)[C@@H](O)[C@H]2O)c(=O)[nH]1; experiment: cells, lysate or membranes; settings: other: hCNT1a; 20.0 °C
Molecule,effect on expressed uridine fluxes/transport [1],"inhibition of uridine fluxes, hCNT1a [2]","inhibition of uridine fluxes, hCNT1b [3]",selective inhibition of uridine and thymidine fluxes (rCNT1) [1],also measured
O=c1ccn([C@@H]2O[C@H](COP(=O)(O)O)[C@@H](O)[C@H]2O)c(=O)[nH]1 [UMP],no effect,–,–,–,–
O=c1ccn([C@@H]2O[C@H](COP(=O)(O)OP(=O)(O)OP(=O)(O)O)[C@@H](O)[C@H]2O)c(=O)[nH]1 [UTP],no effect,–,–,–,–
"Nc1nc2c(ncn2[C@H]2CC[C@@H](CO)O2)c(=O)[nH]1 [ddG, 2',3'-dideoxyguanosine]",no effect,–,–,–,–
O=c1cc[nH]c(=O)[nH]1 [Uracil],no effect,–,–,–,–
Nc1ccn([C@@H]2O[C@H](CO)[C@@H](O)[C@H]2O)c(=O)n1 [cytidine],–,inhibited,inhibited,selective inhibition,–
Nc1nc2c(ncn2[C@@H]2O[C@H](CO)[C@@H](O)[C@H]2O)c(=O)[nH]1 [guanosine],–,not and not inhibited,not,">>guanosine, inosine","mediated flux, rCNT1 ([4]; 10 μM permeant (FIG. 14)): 0.05±0.01 pmol/oocyte.10 min^-1; permeant quality, hCNT1 [5]: poor CNT1 permeant; also recorded: poor hCNT1 permeants; mediated flux, hCNT1a ([5]; 10 μM permeant (FIG. 14)): 0.06±0.01 pmol/oocyte.10 min^-1; fluxes, hCNT1b (results not shown) [6]: very low guanosine fluxes"
Cc1cn([C@H]2C[C@H](O)[C@@H](CO)O2)c(=O)[nH]c1=O [thymidine],–,inhibited,inhibited,selective inhibition,–
"Nc1ccn([C@H]2CC[C@@H](CO)O2)c(=O)n1 [ddC, 2',3'-dideoxycytidine]",–,–,–,–,"inhibition of hCNT1a-mediated influx of uridine ([2]; analog 5 mM (FIG. 12A)): inhibited; CNT1-mediated uptake/transport ([4]; 10 μM permeant): large increases; Na+ dependence of initial rate of expressed uptake ([4]; 10 μM, 10-min flux): 93%; Vmax ([4]; rat CNT1, permeant = labelled substance): 20 pmol/oocyte.min^-1; rate of entry into human erythrocytes relative to those of thymidine and cytidine [7]: < 2%; Km ([8]; Domin et al, 1993): 23 mM; transport by equilibrative nucleoside transporters [8]: low affinity es substrate; inhibition of hCNT1b-mediated influx of uridine ([3]; analog 5 mM (FIG. 12B)): inhibited; IC50 [1]: < 1000 µM"
O=c1ccn([C@@H]2O[C@H](COP(=O)(O)OP(=O)(O)O)[C@@H](O)[C@H]2O)c(=O)[nH]1 [UDP],no effect,–,–,–,–
OC[C@H]1O[C@@H](n2cnc3c(O)ncnc32)[C@H](O)[C@@H]1O [inosine],–,not,not,">>guanosine, inosine",–
"OC[C@@H]1CC[C@H](n2cnc3c(O)ncnc32)O1 [ddl, 2',3'-dideoxyinosine]",no effect,–,–,–,–
hCNT1a (Homo sapiens) (protein) MENDPSRRRESISLTPVAKGLENMGADFLESLEGGQLPRSDLSPAEIRSSWSEAAPKPFSRWRNLQPALRARSFCREHMQLFRWIGTGLLCTGLSAFLLVACLLDFQRALALFVLTCVVLTFLGHRLLKRLLGPKLRRFLVKPQGHPRLLLWFKRGLALAAFLGLVLWLSLDTSQRPEQLVSFAGICVFVALLFACSKHHCAVSWRAVSWGLGLQFVLGLLVIRTEPGFIAFEWLGEQIRIFLSYTKAGSSFVFGEALVKDVFAFQVLPIIVFFSCVISVLYHVGLMQWVILKIAWLMQVTMGTTATETLSVAGNIFVSQTEAPLLIRPYLADMTLSEVHVVMTGGYATIAGSLLGAYISFGIDATSLIAASVMAAPCALALSKLVYPEVEESKFRREEGVKLTYGDAQNLIEAASTGAAISVKVVANIAANLIAFLAVLDFINAALSWLGDMVDIQGLSFQLICSYILRPVAFLMGVAWEDCPVVAELLGIKLFLNEFVAYQDLSKYKQRRLAGAEEWVGDRKQWISVRAEVLTTFALCGFANFSSIGIMLGGLTSMVPQRKSDFSQIVLRALFTGACVSLVNACMAGILYMPRGAEVDCMSLLNTTLSSSSFEIYQCCREAFQSVNPEFSPEALDNCCRFYNHTICAQ,–,–,–,–,Km [9]: 0.045 ± 0.008 mM
